Source: ChEMBL document CHEMBL4340557, “Fasudil dichloroacetate (FDCA), an orally available agent with potent therapeutic efficiency on monocrotaline-induced pulmonary arterial hypertension rats” (Bioorg Med Chem Lett, 2019)

Assays:
Rattus norvegicus [1] = experiment: Hemodynamic activity in Sprague-Dawley rat assessed as effect on mean pulmonary artery pressure at 43.3 mg/kg, po administered daily for 2 weeks by pressure transducer-coupled polygraphy; assay type: ADME, organism-based; conditions: in vivo, 336 h
Rattus norvegicus [2] = experiment: Anti-hypersensitive activity in MCT-induced pulmonary arterial hypertension Sprague-Dawley rat model assessed as right ventricular systolic pressure at 43.3 mg/kg, po administered daily for 14 days starting from 14 days post-MCT challenge and measured post-last dose by pressure transducer-coupled polygraphy (reference value: 59.06 +/- 3.26 mmHg); assay type: functional
Rattus norvegicus [3] = experiment: Anti-hypersensitive activity in MCT-induced pulmonary arterial hypertension Sprague-Dawley rat model assessed as pulmonary artery medial thickness at 43.3 mg/kg, po administered daily for 14 days starting from 14 days post-MCT challenge and measured post-last dose by hematoxylin and eosin staining-based microscopic analysis (reference value: […] +/- […]); assay type: functional
[4] = Plasma concentration in Sprague-Dawley rat assessed as fasudil level at 14.4 mg/kg, po measured at 2 hrs by LC-MS/MS analysis; assay type: ADME, organism-based; conditions: in vivo
[5] = Cmax in Sprague-Dawley rat at 14.4 mg/kg, po by LC-MS/MS analysis; assay type: ADME, organism-based; set-up: dose 14.4 mg/kg, route oral; conditions: in vivo
[6] = Plasma concentration in Sprague-Dawley rat assessed as fasudil level at 14.4 mg/kg, po measured at 0.25 hrs by LC-MS/MS analysis; assay type: ADME, organism-based; conditions: in vivo
Rattus norvegicus [7] = experiment: Hemodynamic activity in Sprague-Dawley rat assessed as effect on right ventricular systolic pressure at 43.3 mg/kg, po administered daily for 2 weeks by pressure transducer-coupled polygraphy; assay type: ADME, organism-based; conditions: in vivo, 336 h
[8] = AUC (0 to infinity) in Sprague-Dawley rat at 14.4 mg/kg, po by LC-MS/MS analysis; assay type: ADME, organism-based; set-up: dose 14.4 mg/kg, time infinity, route oral; conditions: in vivo
[9] = Elimination rate constant in Sprague-Dawley rat at 14.4 mg/kg, po by LC-MS/MS analysis; assay type: ADME, organism-based; conditions: in vivo
[10] = Plasma concentration in Sprague-Dawley rat assessed as fasudil level at 14.4 mg/kg, po measured at 1 hr by LC-MS/MS analysis; assay type: ADME, organism-based; conditions: in vivo
Rattus norvegicus [11] = experiment: Hemodynamic activity in Sprague-Dawley rat assessed as effect on right ventricular hypertrophy index at 43.3 mg/kg, po administered daily for 2 weeks by pressure transducer-coupled polygraphy; assay type: ADME, organism-based; conditions: in vivo, 336 h
[12] = AUMC (0 to t) in Sprague-Dawley rat at 14.4 mg/kg, po by LC-MS/MS analysis; assay type: ADME, organism-based; conditions: in vivo
[13] = Cardiotoxicity in Sprague-Dawley rat assessed as effect on cross-sectional area of cardiomyocyte at 43.3 mg/kg, po administered daily for 2 weeks by hematoxylin and eosin staining-based microscopic analysis (reference value: 209.53 +/- 26.44 micrometer2); assay type: toxicity, organism-based; conditions: in vivo, 336 h
Rattus norvegicus [14] = experiment: Anti-hypersensitive activity in MCT-induced pulmonary arterial hypertension Sprague-Dawley rat model assessed as mean pulmonary artery pressure at 43.3 mg/kg, po administered daily for 14 days starting from 14 days post-MCT challenge and measured post-last dose by pressure transducer-coupled polygraphy (reference value: 36 +/- 2.83 mmHg); assay type: functional
[15] = AUMC (0 to infinity) in Sprague-Dawley rat at 14.4 mg/kg, po by LC-MS/MS analysis; assay type: ADME, organism-based; conditions: in vivo
[16] = AUC (0 to t) in Sprague-Dawley rat at 14.4 mg/kg, po by LC-MS/MS analysis; assay type: ADME, organism-based; conditions: in vivo
Rattus norvegicus [17] = experiment: Hemodynamic activity in Sprague-Dawley rat assessed as effect on mean systemic arterial pressure at 43.3 mg/kg, po administered daily for 2 weeks by pressure transducer-coupled polygraphy; assay type: ADME, organism-based; conditions: in vivo, 336 h
[18] = Tmax in Sprague-Dawley rat at 14.4 mg/kg, po by LC-MS/MS analysis; assay type: ADME, organism-based; conditions: in vivo
Rattus norvegicus [19] = experiment: Anti-hypersensitive activity in MCT-induced pulmonary arterial hypertension Sprague-Dawley rat model assessed as reduction in cardiomyocyte hypertrophy by measuring cross-sectional area of cardiomyocyte at 43.3 mg/kg, po administered daily for 14 days starting from 14 days post-MCT challenge and measured post-last dose by hematoxylin and eosin staining-based microscopic analysis (reference value: 418 +/- 50.88 micrometer2); assay type: functional
[20] = Plasma concentration in Sprague-Dawley rat assessed as fasudil level at 14.4 mg/kg, po measured at 4 hrs by LC-MS/MS analysis; assay type: ADME, organism-based; conditions: in vivo
Rattus norvegicus [21] = experiment: Anti-hypersensitive activity in MCT-induced pulmonary arterial hypertension Sprague-Dawley rat model assessed as lung fibrosis at 43.3 mg/kg, po administered daily for 14 days starting from 14 days post-MCT challenge and measured post-last dose by Masson's trichrome staining-based microscopic analysis (reference value: 6.12 +/- 1.66%); assay type: functional
[22] = Cardiotoxicity in Sprague-Dawley rat assessed as cardiac fibrosis at 43.3 mg/kg, po administered daily for 2 weeks by hematoxylin and eosin staining-based microscopic analysis (reference value: 2.99 +/- 1.34 %); assay type: toxicity, organism-based; conditions: in vivo, 336 h
Rattus norvegicus [23] = experiment: Anti-hypersensitive activity in MCT-induced pulmonary arterial hypertension Sprague-Dawley rat model assessed as reduction in cardiomyocyte hypertrophy by measuring cardiac fibrosis at 43.3 mg/kg, po administered daily for 14 days starting from 14 days post-MCT challenge and measured post-last dose by Masson's trichrome staining-based microscopic analysis (reference value: 11.74 +/- 3.24 %); assay type: functional; set-up: scale not given: the % may be the effect or the level left
[24] = MRT in Sprague-Dawley rat at 14.4 mg/kg, po by LC-MS/MS analysis; assay type: ADME, organism-based; conditions: in vivo
[25] = Plasma concentration in Sprague-Dawley rat assessed as fasudil level at 14.4 mg/kg, po measured at 0.5 hrs by LC-MS/MS analysis; assay type: ADME, organism-based; conditions: in vivo

O=C(O)C(Cl)Cl.O=S(=O)(c1cccc2cnccc12)N1CCCNCC1
Activity (Rattus norvegicus [1]): Non-Toxic | Activity (Rattus norvegicus [2]): 49.54 mmHg | Activity (Rattus norvegicus [3]): 0.2 | Cp [4]: 18.4 ng/mL | Cmax [5]: 113 ng/mL | Cp [6]: 113 ng/mL | Activity (Rattus norvegicus [7]): Non-Toxic | AUC(0-inf) [8]: 117 ng·h/mL | k el [9]: 0.000219 s⁻¹ | Cp [10]: 38 ng/mL | Activity (Rattus norvegicus [11]): Non-Toxic | AUMCt [12]: 119 hr.hr.ng/ml | Activity [13]: 190.6 um2 | Activity (Rattus norvegicus [14]): 25.67 mmHg | AUMC [15]: 160 hr.hr.ng/ml | AUC(0-t) [16]: 109 ng·h/mL | Activity (Rattus norvegicus [17]): Non-Toxic | Tmax [18]: 15 min | Activity (Rattus norvegicus [19]): 282.4 um2 | Cp [20]: 4.46 ng/mL | Activity (Rattus norvegicus [21]): 6.12% | Activity [22]: 2.25% | Activity (Rattus norvegicus [23]): 3.69% | MRT [24]: 77.4 min | Cp [25]: 55.5 ng/mL
